System: diarrhea-predominant IBS subjects
Experiment: 3007 Study: open-label 52-week safety study, adverse events and withdrawals
Settings: Study 3007

SMILES: Cc1nccn1C[C@H]1CCc2c(c3cccc4c3n2CCC4)C1=O [cilansetron, (R)-(−)-4,5,6,8,9,10-hexahydro-10-[(2-methyl-1H-imidazol-1-yl)methyl]-11H-pyrido-[3,2,1-jk]-carbazol-11-one]
- SAE: Hepatobiliary Disorders (P/C): 0 n (%)
- SAE: Immune System Disorders (P/C): 1 (<1%) n (%)
- SAE: Infections and Infestations (P/C): 2 (<1%) n (%)
- SAE: Injury, Poisoning and Procedural Complications (P/C): 0 n (%)
- SAE: Irritable Bowel Syndrome Aggravated (P/C): 0 n (%)
- SAE: Leiomyoma NOS (P/C): 0 n (%)
- SAE: Loss of Consciousness (P/C): 0 n (%)
- SAE: Myocardial Infarction (P/C): 0 n (%)
- SAE: Neoplasms Benign, Malignant and Unspecified (Incl Cysts and Polyps) (P/C): 3 (1%) n (%)
- SAE: Nervous System Disorders (P/C): 0 n (%)
- SAE: Non-Accidental Overdose (P/C): 0 n (%)
- SAE: Ovarian Cancer NOS* (P/C): 0 n (%)
- SAE: Ovarian Cystadenofibroma* (P/C): 1 (<1%) n (%)
- SAE: Pregnancy NOS* (P/C): 0 n (%)
- SAE: Pregnancy, Puerperium and Perinatal Conditions (P/C): 0 n (%)
- SAE: Psychiatric Disorders (P/C): 1 (<1%) n (%)
- SAE: Psychotic Disorder NOS (P/C): 1 (<1%) n (%)
- SAE: Renal and Urinary Disorders (P/C): 1 (<1%) n (%)
- SAE: Reproductive System and Breast Disorders (P/C): 0 n (%)
- SAE: Respiratory, Thoracic and Mediastinal Disorders (P/C): 1 (<1%) n (%)
- SAE: Sinusitis Acute NOS (P/C): 1 (<1%) n (%)
- SAE: Status Epilepticus (P/C): 0 n (%)
- SAE: Suicidal Ideation (P/C): 1 (<1%) n (%)
- SAE: Supraventricular Tachycardia (P/C): 1 (<1%) n (%)
- SAE: Urinary Tract Infection NOS (P/C): 1 (<1%) n (%)
- SAE: Uterine Polyp NOS* (P/C): 0 n (%)
- SAE: Vaginal Cyst* (P/C): 0 n (%)
- TEAEs that led to permanent discontinuation of study medication (P/C): 18%
- Total Number of Subjects with at Least One Serious Adverse Event (P/C): 10 (4%) n (%)
- subjects with at least one TEAE (P/C): 78%
- subjects with at least one treatment-emergent SAE (P/C): 4%
- withdrawal for AE (P/C): 17%
- withdrawal for lack of efficacy (P/C): 21%
- Number of deaths (P/C (N = 279)): 0 n (%)
- Number of subjects who permanently discontinued study medication due to a TEAE (as reported on the AE CRF) (P/C (N = 279)): 50 (18) n (%)
- Number of subjects with at least one AE of special interest (P/C (N = 279)): 185 (66) n (%)
- Number of subjects with at least one SAE (P/C (N = 279)): 10 (4) n (%)
- Number of subjects with at least one TEAE (P/C (N = 279)): 217 (78) n (%)
- Number of subjects with at least one TEAE leading to dose reduction (P/C (N = 279)): 4 (1) n (%)
- Number of subjects with at least one related TEAE (P/C (N = 279)): 150 (54) n (%)
- Number of subjects with at least one severe TEAE (P/C (N = 279)): 44 (16) n (%)
- Number of subjects who died (P/C, all enrolled): 0 n (%)
- Primary reason for withdrawal: Adverse event and lack of efficacy (P/C, all enrolled): 34 (12) n (%)
- Primary reason for withdrawal: Baseline complaint/adverse event (P/C, all enrolled): 14 (5) n (%)
- Primary reason for withdrawal: Lack of efficacy (P/C, all enrolled): 25 (9) n (%)
- TEAE incidence: blood CK increased (female subjects): 1%
- TEAE incidence: constipation (female subjects): 28%
- TEAE incidence: diarrhea excluding infective (female subjects): 9%
- TEAE incidence: nausea and vomiting symptoms (female subjects): 8%
- TEAE incidence: sinusitis NOS (female subjects): 9%
- TEAE incidence: urinary tract infections (female subjects): 8%
- prevalence of constipation overall (fifth (>12 months) interval): 3%
- prevalence of TEAEs overall (first three-month interval): 62%
- prevalence of constipation overall (first three-month interval): 17%
- subjects discontinued due to AEs (first three-month interval): 7%
- prevalence of TEAEs overall (fourth three-month interval): 54%
- prevalence of constipation overall (fourth three-month interval): 2%
- subjects discontinued due to AEs (fourth three-month interval): 2%
- prevalence of TEAEs overall (last (>12 months) interval): 70%
- TEAE incidence: blood CK increased (male subjects): 12%
- TEAE incidence: constipation (male subjects): 15%
- TEAE incidence: diarrhea excluding infective (male subjects): 3%
- TEAE incidence: nausea and vomiting symptoms (male subjects): 3%
- TEAE incidence: sinusitis NOS (male subjects): 3%
- TEAE incidence: urinary tract infections (male subjects): 1%
- subjects who discontinued due to the SAEs (of 29 subjects with SAEs): Eleven
- subjects with at least one constipation episode reported as related to study medication (of the 128 subjects with constipation): 124 subjects
- SAE: Abdominal Pain Upper (overall): 1 (<1%) n (%)
- SAE: Adenomyosis* (overall): 1 (<1%) n (%)
- SAE: Angina Pectoris (overall): 2 (<1%) n (%)
- SAE: Appendicitis (overall): 1 (<1%) n (%)
- SAE: Asthma NOS (overall): 1 (<1%) n (%)
- SAE: Benign Ovarian Tumour* (overall): 1 (<1%) n (%)
- SAE: Bladder Prolapse (overall): 1 (<1%) n (%)
- SAE: Bone Neoplasm Malignant (overall): 1 (<1%) n (%)
- SAE: Breast Cancer NOS* (overall): 2 (<1%) n (%)
- SAE: Bronchopneumonia NOS (overall): 1 (<1%) n (%)
- SAE: Calculus Ureteric (overall): 1 (<1%) n (%)
- SAE: Cardiac Disorders (overall): 4 (<1%) n (%)
- SAE: Chest Pain (overall): 2 (<1%) n (%)
- SAE: Cholelithiasis (overall): 1 (<1%) n (%)
- SAE: Colitis Ischaemic (overall): 1 (<1%) n (%)
- SAE: Depression (overall): 1 (<1%) n (%)
- SAE: Endometriosis* (overall): 1 (<1%) n (%)
- SAE: Fibroma NOS (overall): 1 (<1%) n (%)
- SAE: Food Allergy (overall): 1 (<1%) n (%)
- SAE: Gastritis NOS (overall): 1 (<1%) n (%)
- SAE: Gastroenteritis NOS (overall): 1 (<1%) n (%)
- SAE: Gastrointestinal Disorders (overall): 4 (<1%) n (%)
- SAE: General Disorders and Administration Site Conditions (overall): 2 (<1%) n (%)
- SAE: Hallucination NOS (overall): 1 (<1%) n (%)
- SAE: Hallucination, Auditory (overall): 1 (<1%) n (%)
- SAE: Heat Exhaustion (overall): 1 (<1%) n (%)
- SAE: Hepatitis NOS (overall): 1 (<1%) n (%)
- SAE: Hepatobiliary Disorders (overall): 2 (<1%) n (%)
- SAE: Immune System Disorders (overall): 1 (<1%) n (%)
- SAE: Infections and Infestations (overall): 3 (<1%) n (%)
- SAE: Injury, Poisoning and Procedural Complications (overall): 2 (<1%) n (%)
- SAE: Irritable Bowel Syndrome Aggravated (overall): 1 (<1%) n (%)
- SAE: Leiomyoma NOS (overall): 1 (<1%) n (%)
- SAE: Loss of Consciousness (overall): 2 (<1%) n (%)
- SAE: Myocardial Infarction (overall): 1 (<1%) n (%)
- SAE: Neoplasms Benign, Malignant and Unspecified (Incl Cysts and Polyps) (overall): 6 (1%) n (%)
- SAE: Nervous System Disorders (overall): 2 (<1%) n (%)
- SAE: Non-Accidental Overdose (overall): 1 (<1%) n (%)
- SAE: Ovarian Cancer NOS* (overall): 1 (<1%) n (%)
- SAE: Ovarian Cystadenofibroma* (overall): 1 (<1%) n (%)
- SAE: Pregnancy NOS* (overall): 1 (<1%) n (%)
- SAE: Pregnancy, Puerperium and Perinatal Conditions (overall): 1 (<1%) n (%)
- SAE: Psychiatric Disorders (overall): 1 (<1%) n (%)
- SAE: Psychotic Disorder NOS (overall): 1 (<1%) n (%)
- SAE: Renal and Urinary Disorders (overall): 2 (<1%) n (%)
- SAE: Reproductive System and Breast Disorders (overall): 2 (<1%) n (%)
- SAE: Respiratory, Thoracic and Mediastinal Disorders (overall): 1 (<1%) n (%)
- SAE: Sinusitis Acute NOS (overall): 1 (<1%) n (%)
- SAE: Status Epilepticus (overall): 1 (<1%) n (%)
- SAE: Suicidal Ideation (overall): 1 (<1%) n (%)
- SAE: Supraventricular Tachycardia (overall): 1 (<1%) n (%)
- SAE: Urinary Tract Infection NOS (overall): 1 (<1%) n (%)
- SAE: Uterine Polyp NOS* (overall): 1 (<1%) n (%)
- SAE: Vaginal Cyst* (overall): 1 (<1%) n (%)
- TEAE incidence: GI disorders (overall): 50%
- TEAE incidence: Infections and infestations (overall): 32%
- TEAE incidence: Investigations (overall): 24%
- TEAE incidence: Musculoskeletal and connective tissue disorders (overall): 16%
- TEAE incidence: Nervous system disorders (overall): 12%
- TEAE incidence: abdominal pain NOS (overall): 7%
- TEAE incidence: back pain (overall): 3%
- TEAE incidence: blood CK increased (overall): 5%
- TEAE incidence: constipation (overall): 24%
- TEAE incidence: diarrhea NOS (overall): 6%
- TEAE incidence: fecal occult blood positive (overall): 6%
- TEAE incidence: flatulence (overall): 5%
- TEAE incidence: headache NOS (overall): 6%
- TEAE incidence: nasopharyngitis (overall): 5%
- TEAE incidence: nausea (overall): 5%
- TEAE incidence: sinusitis NOS (overall): 7%
- TEAE incidence: upper respiratory tract infection NOS (overall): 5%
- TEAE incidence: urinary tract infection NOS (overall): 5%
- TEAEs that led to dose reduction (overall): 2%
- TEAEs that led to permanent discontinuation: GI disorders (overall): 12%
- TEAEs that led to permanent discontinuation: abdominal pain NOS (overall): 2%
- TEAEs that led to permanent discontinuation: diarrhea NOS (overall): 1%
- TEAEs that led to permanent discontinuation: flatulence (overall): 1%
- Total Number of Subjects with at Least One Serious Adverse Event (overall): 29 (5%) n (%)
- discontinued study medication due to constipation (overall): 5%
- dose reduction due to constipation (overall): 1%
- overall incidence of TEAEs possibly, probably, or unlikely related to study medication (overall): 56%
- related TEAE: abdominal pain NOS (overall): 6%
- related TEAE: blood CK increased (overall): 3%
- related TEAE: constipation (overall): 23%
- related TEAE: diarrhea NOS (overall): 3%
- related TEAE: fecal occult blood positive (overall): 3%
- related TEAE: flatulence (overall): 4%
- related TEAE: headache NOS (overall): 4%
- related TEAE: nausea (overall): 3%
- severe TEAE: abdominal pain NOS (overall): 2%
- severe TEAE: constipation (overall): 3%
- severe TEAE: headache NOS (overall): 1%
- special interest TEAEs (overall): 69%
- subjects with at least one TEAE (overall): 82%
- subjects with severe TEAEs (overall): 18%
- withdrawal for AE (combined categories) (overall): 15%
- withdrawal for lack of efficacy (combined categories) (overall): 18%
- prevalence of TEAEs overall (second three-month interval): 55%
- prevalence of constipation overall (second three-month interval): 9%
- subjects discontinued due to AEs (second three-month interval): 6%
- prevalence of TEAEs overall (third three-month interval): 54%
- prevalence of constipation overall (third three-month interval): 5%
- subjects discontinued due to AEs (third three-month interval): 2%
